pEC50: −log10 of the molar value. Where two headings read alike, the source gives them in different places.
Columns and labels:
[1] = system: MCF7 cells; assay: Immunofluorescence of Cytochrome C / mitochondria colocalization in senescent MCF7; assay type: cell-based, Homo sapiens; details: MCF7, TAM 10 µM 96 h, then 72 h K5 10 µM or Dasatinib 1 µM
Protocol: (§1) Treated/untreated senescent IMR90 and MCF7 cells were fixed, permeabilized, and stained following suppliers' recommendations. Images were acquired using an Olympus IX83 research inverted microscope (IF) and a phase microscopy Nikon ECLIPSE Ei R (IHC) at 40× MAG.
(§2) Immunofluorescence staining. Treated/untreated IMR90 and MCF7 cells were cultured in LabTek II chamber slides (Nunc, Biosigma). At the final time point, cells were stained with 500 nM MitoTracker Orange (Thermo Fisher Scientific) for 30 min at 37°C and then fixed in 4% PFA (Merck) for 10 min, RT, and permeabilized with 0.1% Triton solution (Merck) for 30 min at RT. Samples were blocked in 5% BSA for 90 min, incubated overnight at 4°C with primary antibody against Cytochrome C (1:50, RbMAb, Abcam), and 1h at RT with secondary antibody Alexa Fluor 488 goat anti-Rb (1:200, Thermo Fisher Scientific). Nuclei were stained with DAPI (Cell Signaling) for 10 min at RT, and ProLong Glass Antifade Mountant (Thermo Fisher Scientific) was used to seal coverslips. Images were acquired using an Olympus IX83 research inverted microscope at 40X magnifications.

[2] = system: IMR90 cells; assay: Immunofluorescence of Cytochrome C / mitochondria colocalization in senescent IMR90; assay type: cell-based, Homo sapiens; details: senescent IMR90 (PD21), 48 h, K5 25 μM, Dasatinib 1 μM; Vehicle OR = 0.913
Protocol: as §1, §2

[3] = system: WI38 cells; assay: Dose-response curves on proliferating and replicative senescent WI38 (Trypan blue cell count); assay type: cell-based; details: for pEC50: Homo sapiens, WI-38
Description: IMR90 and WI38 lung fibroblasts were purchased from ECACC‐Merck. Human bone marrow (BM)‐derived mesenchymal stromal cells (MSCs) were purchased from Lonza. Human umbilical vein endothelial cells (HUVECs) are primary cells obtained from a pool of donors purchased from Clonetics (Lonza). Murine ear fibroblasts (MearFs) were obtained from C57BL/6J mice maintained in the INRCA “Specific Pathogen Free” (SPF) animal facility. MCF7 breast cancer cells were purchased from ATCC. For dose–response curves, IMR90 and WI38 were induced to senescence through replicative passages; MSCs, HUVECs, and MearFs senescence was induced with Doxorubicin; MCF7 senescence was induced with 4‐Hydroxytamoxifen (Lee et al. [2014]). The EC50 was calculated using GraphPad Prism 10 software. All treatment specifications are reported in the extended section.
Cell culture and treatment. IMR90 cells (Homo sapiens, fetal lung, fibroblast) and WI38 cells (Homo sapiens, fetal lung, fibroblast) were purchased from ECACC-Merck (Merck, Darmstadt, Germany) and cultured in MEM medium (Euroclone, Milano, Italy) supplemented with 1% L-Glutamine (Euroclone, Milano, Italy), 1% Penicillin-Streptomycin (Euroclone, Milano, Italy), and 10% Fetal Bovine Serum (FBS, Euroclone, Milano, Italy), at 37°C, 5% CO2. IMR90 cells with a population doubling (PD) from PD15 to PD23 were used; cells were considered incrementally senescent from passage PD19 to passage PD23. WI38 cells were used from PD26 to PD53. Cells were considered incrementally senescent from passage PD49 to passage PD53. For the compounds in vitro screening, IMR90 cells with passages from PD15 to PD23 were tested at increasing concentrations of 0.5 μM, 1 μM, 10 μM, and 25 μM over 24 and 48 h to evaluate the compounds' efficacy and cytotoxicity compared to the Vehicle (DMSO ≤ 0.1%). Cells were counted manually, in triplicate, using Trypan blue reagent (Euroclone) and disposable Bürker chambers. […] K5 dose-response proliferation curves were performed with compound K5 (Molport, SIA, Riga, Latvia) in concentrations 0.1, 0.5, 1, 5, 10, 50, 100, and 200 μM for 48 h. Cells were counted using a Trypan blue reagent and EVAplus cell counter. The EC50s were calculated by analyzing the data using GraphPad Prism 10 software.
MCF7 cell line (ATCC; HTB-22, Homo sapiens, breast cancer) was purchased from ATCC; cells were grown in MEM medium (Corning, New York, USA, #15-010-CVR) supplemented with 10% FBS (Gibco, Invitrogen, Carlsbad, CA, USA, #10270106), 1% glutamine (Corning #25005-CI), 1% penicillin and streptomycin (Corning #30002-CI). Cells were incubated at 37 °C with 5% CO2. Senescent status induction: MCF7 were plated 24 h before the treatment with 4-Hydroxytamoxifen (TAM) 10 μM to induce the senescence described by (Lee et al. 2014). Control cultures were treated with equal volumes of 75% ethanol as the vehicle. The treatment with TAM lasts 96 h, after which the cells have been washed and treated with the senolytic drugs K5 10 µM for another 96 h. The treatment with the senolytic compounds has been renewed at 48 h. Cell mortality and vitality curves after treatment with K5 (10 μM, orange) or Vehicle (DMSO, grey) were monitored using the Incucyte live-cell Analysis system (Sartorius, Goettingen, Germany). The estimated Senolytic index (SI) was calculated as the ratio between the EC50 in proliferating cells and the EC50 in senescent cells, extrapolated using GraphPad Prism 10 software.

[4] = system: IMR90 cells; assay: SA-β-galactosidase colorimetric assay on senescent IMR90; assay type: cell-based, Homo sapiens
Protocol: Previously treated cells were fixed according to the protocols established by the supplier (Cell Signaling). The images were acquired using an optical microscope (Leica) with 5× and 10× magnification (MAG) or the phase microscopy EVOS XL Core at 10× MAG and analyzed using the ImageJ software. The mean signal intensity was then normalized for the total number of cells.
β-galactosidase colorimetric assay. For cell cultures: Previously treated cells were fixed with the fixative solution for 10 min at RT according to the protocols established by the supplier (Senescence β-Galactosidase Staining Kit, #9860S, Cell Signaling, Danvers, MA, USA) Cells were then incubated with the substrate, X-gal, in a solution at pH 6, at 37°C, overnight (16 h) (Itahana et al. 2007). The images were acquired using an optical microscope (Leica, Wetzlar, Germany) with 5 and 10X magnification or the phase microscopy EVOS XL Core at 10X magnification. The images were analyzed using the ImageJ software, quantifying the colorimetric signal emitted by each cell. The mean signal intensity was then normalized for the total number of cells.

Structure (SMILES): Cc1ccccc1-n1c(=O)n(Cc2ccccc2)c(=O)c2[nH]cnc21 [Compound K5, 1-benzyl-3-(2-methylphenyl)-7H-purine-2,6-dione]
- Cytochrome C / mitochondria colocalization, Overlap R (OR) ([1]; TAM + Vehicle OR = 0.978): 0.896
- Cytochrome C / mitochondria colocalization, Pearson's Rr (PRr) ([1]; TAM + Vehicle PRr = 0.961): 0.810
- Cytochrome C / mitochondria colocalization, Overlap R (OR) [2]: 0.454
- pEC50 ([3]; WI38, Replicative/passages, read-out: EC50 senescent cells): 6.19
- pEC50 ([3]; WI38, read-out: EC50 proliferating cells): < 3.30
- Senolytic evidence (no, partly/yes) ([3]; WI38, Replicative/passages): Yes
- Senolytic index (estimated) ([3]; WI38, SI = EC50 in proliferating cells/EC50 senescent cells): > 770
- toxicity in proliferating cells ([3]; proliferating WI38 (PD29), 100 nM to 200 μM, 48 h): no evident toxicity
- reduced SA-β-gal+ cells [4]: 20%

Reference: paper PMC12266748, “A Xanthine Derivative With Novel Heat Shock Protein 90‐Alpha Inhibitory and Senolytic Properties” (Aging Cell, 2025)
